Test [1] concerns the target T1, STING WT: His-TVMV-S-hSTING(155-341)-H232R (Homo sapiens, UniProt Q86WV6, H232R).
T1 construct: STING WT: His-TVMV-S-hSTING(155-341)-H232R
Put plainly: STING HTRF binding assay (time resolved FRET competition), STING WT. The note with it: 20 nM His-tagged STING WT cytoplasmic domain, 200 nM fluorescein-labeled cGAMP analog probe, one hour; read-out: HTRF Binding Assays IC50 (μM) WT. How it is done:
(§1) A time resolved FRET-based competition binding assay was used to assess test article binding to STING WT and STING AQ. His-tagged STING cytoplasmic domain (WT or AQ) at a concentration of 20 nM was incubated with 2.5 nM Tb-labeled anti-His antibody, test compound, and fluorescein-labeled cGAMP analog probe (BioLog cat. no. C195) at a concentration of 200 nM (STING WT) or 40 nM (STING AQ) in PBS containing 0.005% Tween-20 and 0.1% BSA for one hour. Fluorescence at 495 nm and 520 nm was measured using an EnVision microplate reader to quantify FRET between Tb-labeled anti-His antibody and fluorescein-labeled probe. Background was defined as the signal obtained in the absence of STING protein, and background subtracted FRET ratios were normalized to the maximum signal obtained in the absence of test compound. These values were converted to a percent inhibition. Percent inhibition was determined for test compounds at 11 concentrations. The IC50, defined as the concentration of competing test compound needed to reduce specific binding of the probe by 50%, was calculated using the 4 parameter logistic equation to fit the data

For test [2], the system named is THP1-Dual cells, NF-κB pathway. Put plainly: STING THP1 Reporter Assay, NF-κB pathway (SEAP, QUANTI-Blue). Type of test: cell-based. Particulars: 10% human plasma, SEAP readout (OD620), 100% activation = 100 μM cGAMP, read-out: THP1 Reporter Assays EC50 (μM) NFkB. The text has this:
(§2) THP1-Dual™ cells were derived from the human THP-1 monocyte cell line by stable integration of two inducible reporter constructs. To this end, THP1-Dual™ cells allow the simultaneous study of the NF-κB pathway, by monitoring the activity of SEAP, and the IRF pathway by assessing the activity of a secreted luciferase (Lucia). Both reporter proteins are readily measurable in the cell culture supernatant when using QUANTI-Blue™, a SEAP detection reagent, and QUANTI-Luc™, a luciferase detection reagent.
(§3) THP1-Dual™ cells induce the activation of NF-κB in response to STING agonists. They also trigger the IRF pathway upon stimulation with STING agonists, such as cGAMP. Here, the THP-1-Dual cells were used to assess STING binders for function on the cellular level.
(§4) Serial dilutions of compounds in DMSO were added to low volume 384 well plates at 100 nl/well using an ECHO acoustic dispenser (Labcyte, model 550) to achieve final starting concentration of 100 μM in cell suspension. THP-1 Dual™ STING reporter cells (Invivogen, Dual cells cat #THPD-nfis) were added to the plates with compounds at 15,000 cells in 10 μL per well in RPMI media (Gibco, cat #11875) containing 10% human plasma in a low volume 384-well black wall clear bottom tissue culture plate (Corning, cat #3542) for SEAP assay and low volume solid white plate (Corning, cat #3826) for luciferase assay. One column of the plate was reserved for treatment with cGAMP at 100 μM for 100% activation calculation and one column for no treatment (DMSO only) for baseline activation. Plates were then incubated in 37 OC incubator at 5% CO2 for 20 hours.
(§5) In the SEAP assay, 5 μl of 2× QuantiBlue (Invivogen, cat #Rep-qb2) is added to 384 well black plates seeded with THP1 cells and incubated at 37° C. for 2 hours. Plates were read on the Envision (Perkin Elmer) at 620 nm wavelength (OD620). In the luciferase assay, 5 μl of Quantiluc (Invivogen, Rep-qlc2) is added to white 384 well plates seeded with THP1 cells and read at 5 minutes on the Envision (Perkin Elmer) using a luminescence protocol (RLU). For both cell lines, 100% activation was determined by value (RLU) of THP-1 Dual STING cells stimulated with 100 μM cGAMP (Invivogen, cat #TLRL-NACGA23-5).

Test [3] has as its target T2, STING AQ: His-TVMV-S-hSTING(155-341)-G230A-R293Q (Homo sapiens, UniProt Q86WV6, G230A/H232R/R293Q).
T2 construct: STING AQ: His-TVMV-S-hSTING(155-341)-G230A-R293Q
Put plainly: STING HTRF binding assay (time resolved FRET competition), STING AQ. Particulars: 20 nM His-tagged STING AQ cytoplasmic domain, 40 nM fluorescein-labeled cGAMP analog probe, one hour; read-out: HTRF Binding Assays IC50 (μM) AQ. How it is done:
as §1

Test [4] concerns THP1-Dual cells, IRF pathway (IRF3). Briefly: STING THP1 Reporter Assay, IRF pathway (secreted Lucia luciferase, QUANTI-Luc). The note with it: 10% human plasma, luciferase readout, 100% activation = 100 μM cGAMP, read-out: THP1 Reporter Assays EC50 (μM) IRF3. It counts as cell-based.
Description: as §2, §3, §4, §5

Where two headings read alike, the source gives them in different places.

T2 sequence (Q86WV6 with tags, fused parts or gaps G230A/H232R/R293Q): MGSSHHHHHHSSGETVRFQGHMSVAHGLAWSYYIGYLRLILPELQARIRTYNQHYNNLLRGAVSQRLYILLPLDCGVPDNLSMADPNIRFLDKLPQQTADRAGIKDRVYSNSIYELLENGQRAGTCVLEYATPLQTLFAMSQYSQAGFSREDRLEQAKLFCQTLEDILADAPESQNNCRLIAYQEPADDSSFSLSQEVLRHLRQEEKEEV
T1 sequence (Q86WV6 with tags, fused parts or gaps H232R): as the sequence (Q86WV6 with tags, fused parts or gaps G230A/H232R/R293Q) above, with A99G, Q162R counted along it

On to `Nc1ncnc2c1ncn2[C@@H]1C[C@@H]2COP(=O)(S)O[C@@H]3[C@H](O)[C@@H](COP(=O)(S)OC[C@H]21)O[C@H]3n1cnc2c(=O)n3ccnc3[nH]c21` (single isomer, unassigned) [Example 2-1], for which the IC50 in test [1] came out at 0.06 µM; in test [3] it was 0.002 µM. Besides, the EC50 in test [2] (Homo sapiens, THP1-Dual, 20 h) came out at 7.15 µM; in test [4] (Homo sapiens, THP1-Dual, 20 h), 3.07 µM.

In the case of `O=P1(S)OC[C@@H]2[C@@H](COP(=O)(S)O[C@H]3[C@@H](F)[C@H](n4cnc5c4ncn4ccnc54)O[C@@H]3CO1)C[C@H]2n1cnc2c(Cl)ncnc21` (single isomer, unassigned) [Example 18-3], the values for the IC50 in test [1] and in test [3] were over 100 µM and 2.81 µM, respectively. The EC50 in test [2] (20 hours) and in test [4] (20 hours) was over 100 µM each time.

In the case of `Nc1ncnc2c1ncn2[C@@H]1O[C@@H]2COP(=O)(S)OC[C@@H]3[C@@H](COP(=O)(S)O[C@H]2[C@H]1F)C[C@H]3n1cnc2c1ncn1ccnc21` (single isomer, unassigned) [Example 3-1], the IC50 in test [1] stood at 1.38 µM; in test [3] it was 0.09 µM. Moreover, the EC50 in test [2] (20 hours) was over 100 µM; in test [4] (20 hours), 93.1 µM.

Turning to `Nc1ncnc2c1ncn2[C@@H]1C[C@@H]2COP(=O)(S)O[C@@H]3[C@H](F)[C@@H](COP(=O)(O)OC[C@H]21)O[C@H]3n1cnc2c(=O)n3ccnc3[nH]c21` (stereo partly drawn) [Example 7, 3-[(1S,6S,8R,9R,15R,17R,18R)-8-(6-amino-9H-purin-9-yl)-18-fluoro-3,12-dihydroxy-12-oxo-3-sulfanylidene-2,4,11,13,16-pentaoxa-3λ^5,12λ^5-diphosphatricyclo[13.2.1.0^6,9]octadecan-17-yl]-3H,5H,9H-imidazo[1,2-a]purin-9-one], the values for the IC50 in test [1] and in test [3] were 0.12 µM and 0.002 µM, respectively. For the same compound, the EC50 in test [2] (Homo sapiens, THP1-Dual, 20 h) is 11.5 µM; in test [4] (Homo sapiens, THP1-Dual, 20 h), 3.01 µM.

Consider `Nc1ncnc2c1ncn2[C@@H]1O[C@@H]2COP(=O)(S)OC[C@@H]3[C@@H](COP(=O)(S)O[C@H]2[C@H]1F)C[C@H]3n1cnc2c(=O)n3cnnc3[nH]c21` (single isomer, unassigned) [Example 21-2], for which the IC50 came to 6.97 µM in test [1] and 0.2 µM in test [3]. The EC50 in test [2] (20 hours) and in test [4] (20 hours) was over 100 µM throughout.

As for `NC(=O)c1cc([C@@H]2O[C@@H]3COP(=O)(S)OC[C@@H]4[C@@H](COP(=O)(S)O[C@@H]2[C@@H]3O)C[C@H]4n2cnc3c(N)ncnc32)ccn1` (single isomer, unassigned) [Example 20-1], the IC50 in test [1] and in test [3] was over 100 µM each time. In addition, the EC50 in test [2] (20 hours) and in test [4] (20 hours) was over 100 µM in each case.

As for `Nc1ncnc2c1ncn2[C@@H]1O[C@@H]2COP(=O)(S)OC[C@@H]3[C@@H](COP(=O)(S)O[C@H]2[C@H]1F)C[C@H]3n1cnc2c(=O)n3cnnc3[nH]c21` (single isomer, unassigned) [Example 21-1], the IC50 in test [1] was 0.15 µM; in test [3] it was 0.004 µM. Moreover, the EC50 in test [2] (20 hours) turned out to be 25 µM; in test [4] (20 hours), 5.36 µM.

Regarding `Nc1ncnc2c1ncn2[C@@H]1O[C@@H]2COP(=O)(S)OC[C@@H]3[C@@H](COP(=O)(S)O[C@H]2[C@H]1F)C[C@H]3n1cnc2c(=O)n3nnnc3[nH]c21` (single isomer, unassigned) [Example 23], the IC50 in test [1] is 4.96 µM; in test [3], 0.07 µM. Also, the EC50 is 92.2 µM in test [2] (Homo sapiens, THP1-Dual, 20 h) and over 100 µM in test [4] (Homo sapiens, THP1-Dual, 20 h).

Consider `Nc1ncnc2c1ncn2[C@@H]1C[C@@H]2COP(=O)(S)O[C@@H]3[C@H](F)[C@@H](COP(=O)(S)OC[C@H]21)O[C@H]3n1cnc2c(=O)n3cc[nH]c3nc21` (single isomer, unassigned) [Example 6-1], for which the figures for the IC50 in test [1] and in test [3] were 6.31 µM and 0.18 µM, respectively. Besides, the EC50 in test [2] (20 hours) and in test [4] (20 hours) was over 100 µM throughout.

As to `Nc1ncnc2c1ncn2[C@@H]1C[C@@H]2COP(=O)(S)O[C@@H]3[C@H](F)[C@@H](COP(=O)(S)OC[C@H]21)O[C@H]3n1cnc2c(=O)n3cc[nH]c3nc21` (single isomer, unassigned) [Example 6-3], the IC50 was found to be 9.24 µM in test [1] and 0.22 µM in test [3]. The EC50 in test [2] (20 hours) and in test [4] (20 hours) was over 100 µM each time.

In the case of `NC(=O)c1cc([C@@H]2O[C@@H]3COP(=O)(S)OC[C@@H]4[C@@H](COP(=O)(S)O[C@@H]2[C@@H]3O)C[C@H]4n2cnc3c(N)ncnc32)ccn1` (single isomer, unassigned) [Example 20-4], the IC50 was over 100 µM in test [1] and 35.7 µM in test [3]. Further, the EC50 in test [2] (20 hours) and in test [4] (20 hours) was over 100 µM each time.

For the compound `Nc1ncnc2c1ncn2[C@@H]1C[C@@H]2COP(=O)(S)O[C@H]3[C@@H](O)[C@H](n4cnc5c(=O)n6cc[nH]c6nc54)O[C@@H]3COP(=O)(S)OC[C@H]21` (single isomer, unassigned) [Example 5-2], the IC50 in test [1] was over 100 µM; in test [3], 11.8 µM. The EC50 in test [2] (20 hours) and in test [4] (20 hours) was over 100 µM each time.

Consider `Nc1ncnc2c1ncn2[C@@H]1C[C@@H]2COP(=O)(S)O[C@H]3[C@@H](F)[C@H](n4cnc5c4ncn4ccnc54)O[C@@H]3COP(=O)(S)OC[C@H]21` (single isomer, unassigned) [Example 17-1], for which the IC50 in test [1] was over 100 µM; in test [3], 3.55 µM. The EC50 in test [2] (Homo sapiens, THP1-Dual, 20 h) is over 100 µM; in test [4] (Homo sapiens, THP1-Dual, 20 h), over 100 µM.

Consider `Nc1ncnc2c1ncn2[C@@H]1C[C@@H]2COP(=O)(S)O[C@@H]3[C@H](F)[C@@H](COP(=O)(S)OC[C@H]21)O[C@H]3n1cnc2c(=O)n3cc[nH]c3nc21` (single isomer, unassigned) [Example 6-2], for which the IC50 in test [1] is 0.13 µM; in test [3], 0.01 µM. Besides, the EC50 came out at 6.99 µM in test [2] (20 hours) and 3.18 µM in test [4] (20 hours).

Take `Nc1ncnc2c1ncn2[C@@H]1O[C@@H]2COP(=O)(S)OC[C@@H]3[C@@H](COP(=O)(S)O[C@H]2[C@H]1F)C[C@H]3n1cnc2c(=O)[nH]cnc21` (single isomer, unassigned) [Example 22-3]: the IC50 came out at 2.71 µM in test [1] and 0.04 µM in test [3]. Besides, the EC50 in test [2] (20 hours) and in test [4] (20 hours) was over 100 µM throughout.

Consider `NC(=O)c1cc([C@@H]2C[C@@H]3COP(=O)(S)O[C@H]4[C@@H](F)[C@H](n5cnc6c(N)ncnc65)O[C@@H]4COP(=O)(S)OC[C@H]32)ccn1` (single isomer, unassigned) [Example 9], for which the IC50 in test [1] worked out at 1.41 µM; in test [3] it was 0.02 µM. The EC50 in test [2] (20 hours) came out at 23.5 µM; in test [4] (20 hours), 18.4 µM.

(Values after patent publication US11339185B2, “Cyclic dinucleotides as anticancer agents” (Bristol-Myers Squibb Company, priority 2018, dated 2022).)
